Legend:
Assay in all cases: relative viability (nuclei count vs DMSO), 5 days (fraction); higher = more cells survive
SW 900 = system: SW 900
Summary of the method: (§1)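 Lung cancer cell lines in 1536-well plates got either a single drug or a fixed anchor-drug dose together with five library-drug doses (not always all listed) in √10 steps, by pin tool, on the day after seeding. Nuclei were counted after 5 days, and relative viability is the treated-to-vehicle ratio of nuclei counts. Values are medians of duplicate plates.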

NCI-H1975 = system: NCI-H1975
Summary of the method: as §1

SK-LU-1 = system: SK-LU-1
Summary of the method: as §1

EPLC-272H = system: EPLC-272H
Summary of the method: as §1

EMC-BAC-2 = system: EMC-BAC-2
Summary of the method: as §1

EKVX = system: EKVX
Summary of the method: as §1

NCI-H1666 = system: NCI-H1666
Summary of the method: as §1

ChaGo-K-1 = system: ChaGo-K-1
Summary of the method: as §1

NCI-H2405 = system: NCI-H2405
Summary of the method: as §1

NCI-H2342 = system: NCI-H2342
Summary of the method: as §1

HCC-827 = system: HCC-827
Summary of the method: as §1

LU99A = system: LU99A
Summary of the method: as §1

NCI-H23 = system: NCI-H23
Summary of the method: as §1

NCI-H2126 = system: NCI-H2126
Summary of the method: as §1

LK-2 = system: LK-2
Summary of the method: as §1

PC-14 = system: PC-14
Summary of the method: as §1

NCI-H1563 = system: NCI-H1563
Summary of the method: as §1

RERF-LC-KJ = system: RERF-LC-KJ
Summary of the method: as §1

LCLC-103H = system: LCLC-103H
Summary of the method: as §1

NCI-H322M = system: NCI-H322M
Summary of the method: as §1

SW 1573 = system: SW 1573
Summary of the method: as §1

CC(=O)O[C@@]12CO[C@@H]1C[C@H](O)[C@@]1(C)C(=O)[C@H](O)C3=C(C)[C@@H](OC(=O)[C@H](O)[C@@H](NC(=O)OC(C)(C)C)c4ccccc4)C[C@@](O)([C@@H](OC(=O)c4ccccc4)[C@H]21)C3(C)C [Docetaxel] + CCNC(=O)c1noc(-c2cc(C(C)C)c(O)cc2O)c1-c1ccc(CN2CCOCC2)cc1 [Luminespib] (partner 0.01 µM)
relative viability (SW 900; first compound 0.0002 µM): 0.185 | relative viability (SW 900; first compound 0.000632 µM): 0.182 | relative viability (SW 900; first compound 0.002 µM): 0.174 | relative viability (SW 900; first compound 0.006325 µM): 0.186 | relative viability (SW 900; first compound 0.02 µM): 0.167 | relative viability (NCI-H1975; first compound 0.0002 µM): 0.364 | relative viability (NCI-H1975; first compound 0.000632 µM): 0.24 | relative viability (NCI-H1975; first compound 0.002 µM): 0.272 | relative viability (NCI-H1975; first compound 0.006325 µM): 0.155 | relative viability (NCI-H1975; first compound 0.02 µM): 0.181 | relative viability (SK-LU-1; first compound 0.0002 µM): 0.205 | relative viability (SK-LU-1; first compound 0.000632 µM): 0.218 | relative viability (SK-LU-1; first compound 0.006325 µM): 0.193 | relative viability (SK-LU-1; first compound 0.02 µM): 0.159 | relative viability (EPLC-272H; first compound 0.0002 µM): 0.133 | relative viability (EPLC-272H; first compound 0.000632 µM): 0.316 | relative viability (EPLC-272H; first compound 0.002 µM): 0.205 | relative viability (EPLC-272H; first compound 0.006325 µM): 0.0836 | relative viability (EPLC-272H; first compound 0.02 µM): 0.119 | relative viability (EMC-BAC-2; first compound 0.0002 µM): 1.15 | relative viability (EMC-BAC-2; first compound 0.000632 µM): 1.08 | relative viability (EMC-BAC-2; first compound 0.002 µM): 0.385 | relative viability (EMC-BAC-2; first compound 0.006325 µM): 0.368 | relative viability (EMC-BAC-2; first compound 0.02 µM): 0.238 | relative viability (EKVX; first compound 0.0002 µM): 0.85 | relative viability (EKVX; first compound 0.000632 µM): 0.795 | relative viability (EKVX; first compound 0.002 µM): 0.45 | relative viability (EKVX; first compound 0.006325 µM): 0.305 | relative viability (EKVX; first compound 0.02 µM): 0.161 | relative viability (NCI-H1666; first compound 0.0002 µM): 0.943 | relative viability (NCI-H1666; first compound 0.000632 µM): 0.776 | relative viability (NCI-H1666; first compound 0.002 µM): 0.623 | relative viability (NCI-H1666; first compound 0.006325 µM): 0.512 | relative viability (NCI-H1666; first compound 0.02 µM): 0.374 | relative viability (ChaGo-K-1; first compound 0.0002 µM): 0.528 | relative viability (ChaGo-K-1; first compound 0.000632 µM): 0.468 | relative viability (ChaGo-K-1; first compound 0.002 µM): 0.251 | relative viability (ChaGo-K-1; first compound 0.006325 µM): 0.228 | relative viability (NCI-H2405; first compound 0.0002 µM): 0.607 | relative viability (NCI-H2405; first compound 0.000632 µM): 0.603 | relative viability (NCI-H2405; first compound 0.002 µM): 0.486 | relative viability (NCI-H2405; first compound 0.006325 µM): 0.33 | relative viability (NCI-H2405; first compound 0.02 µM): 0.22 | relative viability (NCI-H2342; first compound 0.0002 µM): 0.673 | relative viability (NCI-H2342; first compound 0.000632 µM): 0.677 | relative viability (NCI-H2342; first compound 0.002 µM): 0.673 | relative viability (NCI-H2342; first compound 0.006325 µM): 0.462 | relative viability (NCI-H2342; first compound 0.02 µM): 0.4 | relative viability (HCC-827; first compound 0.0002 µM): 0.588 | relative viability (HCC-827; first compound 0.000632 µM): 0.67 | relative viability (HCC-827; first compound 0.002 µM): 0.244 | relative viability (HCC-827; first compound 0.006325 µM): 0.159 | relative viability (HCC-827; first compound 0.02 µM): 0.142 | relative viability (LU99A; first compound 0.0002 µM): 0.218 | relative viability (LU99A; first compound 0.000632 µM): 0.245 | relative viability (LU99A; first compound 0.002 µM): 0.23 | relative viability (LU99A; first compound 0.006325 µM): 0.193 | relative viability (LU99A; first compound 0.02 µM): 0.2 | relative viability (NCI-H23; first compound 0.0002 µM): 0.208 | relative viability (NCI-H23; first compound 0.000632 µM): 0.224 | relative viability (NCI-H23; first compound 0.002 µM): 0.233 | relative viability (NCI-H23; first compound 0.006325 µM): 0.224 | relative viability (NCI-H23; first compound 0.02 µM): 0.18 | relative viability (NCI-H2126; first compound 0.0002 µM): 0.914 | relative viability (NCI-H2126; first compound 0.000632 µM): 0.739 | relative viability (NCI-H2126; first compound 0.002 µM): 0.591 | relative viability (NCI-H2126; first compound 0.006325 µM): 0.403 | relative viability (NCI-H2126; first compound 0.02 µM): 0.255 | relative viability (LK-2; first compound 0.0002 µM): 0.193 | relative viability (LK-2; first compound 0.000632 µM): 0.177 | relative viability (LK-2; first compound 0.002 µM): 0.157 | relative viability (LK-2; first compound 0.006325 µM): 0.164 | relative viability (LK-2; first compound 0.02 µM): 0.168 | relative viability (PC-14; first compound 0.0002 µM): 0.199 | relative viability (PC-14; first compound 0.000632 µM): 0.162 | relative viability (PC-14; first compound 0.002 µM): 0.116 | relative viability (PC-14; first compound 0.02 µM): 0.127 | relative viability (NCI-H1563; first compound 0.0002 µM): 0.518 | relative viability (NCI-H1563; first compound 0.000632 µM): 0.522 | relative viability (NCI-H1563; first compound 0.002 µM): 0.515 | relative viability (NCI-H1563; first compound 0.006325 µM): 0.457 | relative viability (NCI-H1563; first compound 0.02 µM): 0.408 | relative viability (RERF-LC-KJ; first compound 0.0002 µM): 1.16 | relative viability (RERF-LC-KJ; first compound 0.000632 µM): 0.853 | relative viability (RERF-LC-KJ; first compound 0.002 µM): 0.353 | relative viability (RERF-LC-KJ; first compound 0.02 µM): 0.211 | relative viability (LCLC-103H; first compound 0.0002 µM): 0.885 | relative viability (LCLC-103H; first compound 0.000632 µM): 0.835 | relative viability (LCLC-103H; first compound 0.002 µM): 0.498 | relative viability (LCLC-103H; first compound 0.006325 µM): 0.443 | relative viability (LCLC-103H; first compound 0.02 µM): 0.218 | relative viability (NCI-H322M; first compound 0.0002 µM): 0.836 | relative viability (NCI-H322M; first compound 0.000632 µM): 0.891 | relative viability (NCI-H322M; first compound 0.002 µM): 0.788 | relative viability (NCI-H322M; first compound 0.006325 µM): 0.557 | relative viability (NCI-H322M; first compound 0.02 µM): 0.347 | relative viability (SW 1573; first compound 0.0002 µM): 0.165 | relative viability (SW 1573; first compound 0.000632 µM): 0.211 | relative viability (SW 1573; first compound 0.002 µM): 0.0935 | relative viability (SW 1573; first compound 0.006325 µM): 0.137 | relative viability (SW 1573; first compound 0.02 µM): 0.0617
